In patent US20240343699A1, “DERIVATIVES OF SUBSTITUTED MORPHOLINES AND USES THEREOF” (Supernus Pharmaceuticals, Inc., priority 2023, published 2024):
Where two headings read alike, the source gives them in different places.

Experiments:
[1] = In vitro stability in human plasma; type: in vitro ADME; details: Human plasma, final concentration 2 μM
Procedure: Test Article Solutions: COMPOUND A, COMPOUND B and COMPOUND C stock solutions at 10 mM were prepared in dimethyl sulfoxide (DMSO). Further dilution with DMSO was made to prepare 2.0 mM. The working solutions of 50 μM was prepared with 20% MeOH/water. […] Prior to use, the stock solutions were brought to room temperature and thoroughly mixed and prepared same as described above.
Incubations were conducted in 96-well plate format. The time points defined for this study are 0, 5, 15, 30 and 60 minutes.
An appropriate volume of plasma from test species were added to a 96-deep well plate, and COMPOUND A, COMPOUND B and COMPOUND C working solution was spiked into the plasma in duplicate to achieve a final concentration of 2.0 μM. For positive controls, the rat plasma was spiked with enalapril, the dog plasma spiked with bisacodyl and the human plasma was spiked with propantheline. All spiked plasma sample plates were incubated in a water bath at 37° C. with shaking.
At the end of each time point, samples were immediately quenched with three volume of cold quenching solution.
(§1) A study was conducted to examine the plasma stability. Test Compounds: COMPOUND D, COMPOUND E, and Viloxazine. Positive controls: Enalapril and Propantheline.

[2] = type: in vitro ADME; details: Rat plasma, wet ice bath
Procedure: A study was conducted to examine the bioanalytical data for compounds in Rat plasma. […] Frozen Sprague Dawley rat (male pooled) and human (mixed gender) plasma was utilized for the study. Test compounds were dissolved in dimethyl sulfoxide (DMSO) to make a 10 mM stock solution. A working solution was made with MeOH/water. […]

[3] = Plasma stability in rat plasma; type: in vitro ADME, Sprague Dawley rat; details: final concentration 2 μM
Procedure: as §1
A study was conducted to examine the bioanalytical data for compounds in Rat plasma. Frozen Sprague Dawley rat (male pooled) and human (mixed gender) plasma was utilized for the study. Test compounds were dissolved in dimethyl sulfoxide (DMSO) to make a 10 mM stock solution. A working solution was made with MeOH/water. COMPOUND E ([…]) was incubated with plasma in duplicates at 37° C. in a water bath. Sampling timepoints included 0, 5, 15, 30, and 60 min Enalapril and propantheline were used as positive control for rat and human plasma at 2 μM

[4] = Preclinical PK: plasma viloxazine after PO dosing of COMPOUND D or COMPOUND E; type: in vivo, mouse; details: COMPOUND D PO 19.74 mg/kg, individual mice
Procedure: A study was conducted for preclinical PK performance of COMPOUND D and COMPOUND E. Please see below for details on the study, with fasted mice orally dosed with COMPOUND D or COMPOUND E.
Relevant data are summarized in below tables (ND=Not determined (Parameters not determined due to inadequately defined terminal elimination phase. BQL=Below the lower limit of quantitation (LLOQ). If the adjusted rsq (linear regression coefficient of the concentration value on the terminal phase) is less than 0.9, T1/2 might not be accurately estimated. If the % AUCExtra>20%, AUC0-inf, Cl, MRT0-inf and Vdss might not be accurately estimated. If the % AUMCExtra>20%, MRT0-inf and Vdss might not be accurately estimated. a: Bioavailability (%) was calculated using AUC0-inf (% AUCExtra<20%) or AUC0-last (% AUCExtra>20%) with nominal dose)

[5] = type: in vitro ADME, mouse; details: mice Blood, wet ice bath, 5% Paraoxon ethyl as stabilizer; for % stability: 0.5 hr
[6] = Binding assays; details: 1.0E−05 M
Procedure: A study was conducted to test COMPOUND D and COMPOUND E in Binding and enzyme and uptake assays.
COMPOUND D and COMPOUND E were tested at 1.0E-05 M.
The results are expressed as a percent of control specific binding and as a percent inhibition of control specific binding
The IC50 values (concentration causing a half-maximal inhibition of control specific binding) and Hill coefficients (nH) were determined by non-linear regression analysis of the competition curves generated with mean replicate values using Hill equation curve fitting […]
where Y=specific binding, A=left asymptote of the curve, D=right asymptote of the curve, C=compound concentration, C50=IC50, and nH=slope factor. This analysis was performed using software developed at Cerep (Hill software) and validated by comparison with data generated by the commercial software SigmaPlot® 4.0 for Windows® (© 1997 by SPSS Inc.).
The inhibition constants (Ki) were calculated using the Cheng Prusoff equation where L=concentration of radioligand in the assay, and KD=affinity of the radioligand for the receptor. A scatchard plot is used to determine the KD.
In Vitro Pharmacology. Results showing an inhibition (or stimulation for assays run in basal conditions) higher than […] were considered to represent significant effects of the test compounds. Results showing an inhibition (or stimulation) between 25% and 50% are indicative of weak to moderate effects. Results showing an inhibition (or stimulation) lower than […] were not considered significant and mostly attributable to variability of the signal around the control level.

CCOc1ccccc1OCC1CN(C(=O)OC(C)OC(=O)[C@H](N)C(C)C)CCO1 (stereo partly shown) [COMPOUND D]
% Remaining at 60 min (Mean) [1]: 77.1%
Mean peak area ratio ([2]; 5% Paraoxon ethyl as stabilizer, HQC, 0 hr sample): 1.83
% stability ([2]; 5% Paraoxon ethyl as stabilizer, HQC, 1 hr): 58.7%
Mean peak area ratio ([2]; 5% Paraoxon ethyl as stabilizer, HQC, 1 hr sample): 1.07
% stability ([2]; 5% Paraoxon ethyl as stabilizer, HQC, 2 hr): 26.0%
Mean peak area ratio ([2]; 5% Paraoxon ethyl as stabilizer, HQC, 2 hr sample): 0.47
Mean peak area ratio ([2]; 5% Paraoxon ethyl as stabilizer, LQC, 0 hr sample): 0.00608
% stability ([2]; 5% Paraoxon ethyl as stabilizer, LQC, 1 hr): 57.3%
Mean peak area ratio ([2]; 5% Paraoxon ethyl as stabilizer, LQC, 1 hr sample): 0.00348
% stability ([2]; 5% Paraoxon ethyl as stabilizer, LQC, 2 hr): 36.9%
Mean peak area ratio ([2]; 5% Paraoxon ethyl as stabilizer, LQC, 2 hr sample): 0.00224
Mean peak area ratio ([2]; No stabilizer, HQC, 0 hr sample): 0.67
% stability ([2]; No stabilizer, HQC, 1 hr): 31.2%
Mean peak area ratio ([2]; No stabilizer, HQC, 1 hr sample): 0.21
% stability ([2]; No stabilizer, HQC, 2 hr): 8.0%
Mean peak area ratio ([2]; No stabilizer, HQC, 2 hr sample): 0.05
Mean peak area ratio ([2]; No stabilizer, LQC, 0 hr sample): 0.00292
% stability ([2]; No stabilizer, LQC, 1 hr): 30.1%
Mean peak area ratio ([2]; No stabilizer, LQC, 1 hr sample): 0.00088
% stability ([2]; No stabilizer, LQC, 2 hr): 6.8%
Mean peak area ratio ([2]; No stabilizer, LQC, 2 hr sample): 0.0002
% Remaining at 60 min (Mean) [3]: 0.0%
Plasma concentration of Viloxazine ([4]; 8.00 h): BQL
Plasma concentration of Viloxazine ([4]; 24.0 h): BQL
Mean peak area ([5]; HQC, 0 hr sample): 1.315
% stability ([5]; HQC): 52%
Mean peak area ([5]; HQC, 0.5 hr sample): 0.682
Mean peak area ([5]; LQC, 0 hr sample): 0.00479
% stability ([5]; LQC): 54.7%
Mean peak area ([5]; LQC, 0.5 hr sample): 0.00262
inhibition, 5-HT2B(h) (antagonist effect) [6]: 81.5%
inhibition, 5-HT2c(h) (antagonist effect) [6]: 72.4%
inhibition, 5-HT4e(h) (antagonist radioligand) [6]: 78.6%
inhibition, norepinephrine transporter(h) (antagonist radioligand) [6]: 78.4%
